Organism: Rattus norvegicus
Assay: DrugMatrix - Regimen: Daily Repeat
Type: toxicity, organism-based, Sprague-Dawley
Parameters: regimen Daily Repeat, gender Male, age 6-8 weeks
Details: in vivo, po, route oral GAVAGE, […]; for ABSOLUTE BASOPHIL / ABSOLUTE EOSINOPHIL / ABSOLUTE LYMPHOCYTE / ABSOLUTE MONOCYTE / ABSOLUTE SEGMENTED NEUTROPHIL / BASOPHIL / EOSINOPHIL / ERYTHROCYTE COUNT / HEMATOCRIT / HEMOGLOBIN / LEUKOCYTE COUNT / LYMPHOCYTE / MEAN CORPUSCULAR HEMOGLOBIN / MEAN CORPUSCULAR HEMOGLOBIN CONCENTRATION / MEAN CORPUSCULAR VOLUME / MONOCYTE / NEUTROPHIL / NUCLEATED RED BLOOD CELLS / PLATELET COUNT: tissue Blood; for ALANINE AMINOTRANSFERASE / ALBUMIN / ALKALINE PHOSPHATASE / ASPARTATE AMINOTRANSFERASE / BLOOD UREA NITROGEN / CARBON DIOXIDE / CHLORIDE / CHOLESTEROL / CREATINE PHOSPHOKINASE / CREATININE / GLUCOSE / LACTATE DEHYDROGENASE / LIPASE / PHOSPHORUS / POTASSIUM / SODIUM / TOTAL BILIRUBIN / TOTAL PROTEIN: tissue Plasma
[1] = 20 mg/kg, 72 h, dose level Low, time 3 day
[2] = 20 mg/kg, 120 h, dose level Low, time 5 day
[3] = 210 mg/kg, 72 h, dose level High, time 3 day
[4] = 210 mg/kg, 120 h, dose level High, time 5 day

## CN[C@H]1CC[C@@H](c2ccc(Cl)c(Cl)c2)c2ccccc21 [SERTRALINE]
[1]
  ABSOLUTE BASOPHIL: 0 CELLS/uL
  ABSOLUTE EOSINOPHIL: 28.33 CELLS/uL
  ABSOLUTE LYMPHOCYTE: 10624.33 CELLS/uL
  ABSOLUTE MONOCYTE: 86.67 CELLS/uL
  ABSOLUTE SEGMENTED NEUTROPHIL: 1294 CELLS/uL
  BASOPHIL: 0%
  EOSINOPHIL: 0.33%
  ERYTHROCYTE COUNT: 5.85 x10E6/uL
  HEMATOCRIT: 36.57%
  HEMOGLOBIN: 14.27 G/DL
  LEUKOCYTE COUNT: 12.03 x10E3/uL
  LYMPHOCYTE: 87.67%
  MEAN CORPUSCULAR HEMOGLOBIN: 24.37 pg
  MEAN CORPUSCULAR HEMOGLOBIN CONCENTRATION: 39.03 G/DL
  MEAN CORPUSCULAR VOLUME: 62.47 fL
  MONOCYTE: 0.67%
  NEUTROPHIL: 11.33%
  NUCLEATED RED BLOOD CELLS: 0 /100WBC
  PLATELET COUNT: 1161.67 x10E3/uL
  ALANINE AMINOTRANSFERASE: 70.33 u/L
  ALBUMIN: 4.23 G/DL
  ALKALINE PHOSPHATASE: 384.33 u/L
  ASPARTATE AMINOTRANSFERASE: 83.33 u/L
  BLOOD UREA NITROGEN: 14 mg/dL
  CARBON DIOXIDE: 29.67 mmol/L
  CHLORIDE: 103 MEQ/L
  CHOLESTEROL: 79 mg/dL
  CREATINE PHOSPHOKINASE: 163 u/L
  CREATININE: 0.23 mg/dL
  GLUCOSE: 158 mg/dL
  LACTATE DEHYDROGENASE: 155 u/L
  LIPASE: 11 u/L
  PHOSPHORUS: 12.33 mg/dL
  POTASSIUM: 6.97 MEQ/L
  SODIUM: 147.8 MEQ/L
  TOTAL BILIRUBIN: 0.17 mg/dL
  TOTAL PROTEIN: 5.57 G/DL
[2]
  ABSOLUTE BASOPHIL: 0 CELLS/uL
  ABSOLUTE EOSINOPHIL: 46.67 CELLS/uL
  ABSOLUTE LYMPHOCYTE: 12898.33 CELLS/uL
  ABSOLUTE MONOCYTE: 0 CELLS/uL
  ABSOLUTE SEGMENTED NEUTROPHIL: 955 CELLS/uL
  BASOPHIL: 0%
  EOSINOPHIL: 0.33%
  ERYTHROCYTE COUNT: 5.71 x10E6/uL
  HEMATOCRIT: 34.57%
  HEMOGLOBIN: 13.57 G/DL
  LEUKOCYTE COUNT: 13.9 x10E3/uL
  LYMPHOCYTE: 92.33%
  MEAN CORPUSCULAR HEMOGLOBIN: 23.83 pg
  MEAN CORPUSCULAR HEMOGLOBIN CONCENTRATION: 39.27 G/DL
  MEAN CORPUSCULAR VOLUME: 60.73 fL
  MONOCYTE: 0%
  NEUTROPHIL: 7.33%
  NUCLEATED RED BLOOD CELLS: 0 /100WBC
  PLATELET COUNT: 913 x10E3/uL
  ALANINE AMINOTRANSFERASE: 60.33 u/L
  ALBUMIN: 4.27 G/DL
  ALKALINE PHOSPHATASE: 427 u/L
  ASPARTATE AMINOTRANSFERASE: 85 u/L
  BLOOD UREA NITROGEN: 13.67 mg/dL
  CARBON DIOXIDE: 25.33 mmol/L
  CHLORIDE: 103.33 MEQ/L
  CHOLESTEROL: 77.67 mg/dL
  CREATINE PHOSPHOKINASE: 211 u/L
  CREATININE: 0.18 mg/dL
  GLUCOSE: 164.33 mg/dL
  LACTATE DEHYDROGENASE: 121.33 u/L
  LIPASE: 10.33 u/L
  PHOSPHORUS: 12.77 mg/dL
  POTASSIUM: 7.01 MEQ/L
  SODIUM: 147.5 MEQ/L
  TOTAL BILIRUBIN: 0.2 mg/dL
  TOTAL PROTEIN: 5.9 G/DL
[3]
  ABSOLUTE BASOPHIL: 0 CELLS/uL
  ABSOLUTE EOSINOPHIL: 0 CELLS/uL
  ABSOLUTE LYMPHOCYTE: 11258 CELLS/uL
  ABSOLUTE MONOCYTE: 82.33 CELLS/uL
  ABSOLUTE SEGMENTED NEUTROPHIL: 1226.33 CELLS/uL
  BASOPHIL: 0%
  EOSINOPHIL: 0%
  ERYTHROCYTE COUNT: 6.22 x10E6/uL
  HEMATOCRIT: 39.43%
  HEMOGLOBIN: 15.5 G/DL
  LEUKOCYTE COUNT: 12.57 x10E3/uL
  LYMPHOCYTE: 89.67%
  MEAN CORPUSCULAR HEMOGLOBIN: 24.93 pg
  MEAN CORPUSCULAR HEMOGLOBIN CONCENTRATION: 39.33 G/DL
  MEAN CORPUSCULAR VOLUME: 63.33 fL
  MONOCYTE: 0.67%
  NEUTROPHIL: 9.67%
  NUCLEATED RED BLOOD CELLS: 0 /100WBC
  PLATELET COUNT: 1225 x10E3/uL
  ALANINE AMINOTRANSFERASE: 53.67 u/L
  ALBUMIN: 4.33 G/DL
  ALKALINE PHOSPHATASE: 460.67 u/L
  ASPARTATE AMINOTRANSFERASE: 112 u/L
  BLOOD UREA NITROGEN: 16 mg/dL
  CARBON DIOXIDE: 28.33 mmol/L
  CHLORIDE: 101.33 MEQ/L
  CHOLESTEROL: 55.33 mg/dL
  CREATINE PHOSPHOKINASE: 286.67 u/L
  CREATININE: 0.22 mg/dL
  GLUCOSE: 117.33 mg/dL
  LACTATE DEHYDROGENASE: 163.33 u/L
  LIPASE: 10.33 u/L
  PHOSPHORUS: 11.53 mg/dL
  POTASSIUM: 6.21 MEQ/L
  SODIUM: 146.43 MEQ/L
  TOTAL BILIRUBIN: 0.1 mg/dL
  TOTAL PROTEIN: 5.97 G/DL
[4]
  ABSOLUTE BASOPHIL: 0 CELLS/uL
  ABSOLUTE EOSINOPHIL: 207 CELLS/uL
  ABSOLUTE LYMPHOCYTE: 18574.33 CELLS/uL
  ABSOLUTE MONOCYTE: 70.33 CELLS/uL
  ABSOLUTE SEGMENTED NEUTROPHIL: 1848.33 CELLS/uL
  BASOPHIL: 0%
  EOSINOPHIL: 1%
  ERYTHROCYTE COUNT: 6.11 x10E6/uL
  HEMATOCRIT: 37.3%
  HEMOGLOBIN: 14.97 G/DL
  LEUKOCYTE COUNT: 20.7 x10E3/uL
  LYMPHOCYTE: 89.67%
  MEAN CORPUSCULAR HEMOGLOBIN: 24.53 pg
  MEAN CORPUSCULAR HEMOGLOBIN CONCENTRATION: 40.13 G/DL
  MEAN CORPUSCULAR VOLUME: 61.1 fL
  MONOCYTE: 0.33%
  NEUTROPHIL: 9%
  NUCLEATED RED BLOOD CELLS: 0 /100WBC
  PLATELET COUNT: 1278.33 x10E3/uL
  ALANINE AMINOTRANSFERASE: 67 u/L
  ALBUMIN: 4.07 G/DL
  ALKALINE PHOSPHATASE: 368.33 u/L
  ASPARTATE AMINOTRANSFERASE: 101.67 u/L
  BLOOD UREA NITROGEN: 18 mg/dL
  CARBON DIOXIDE: 26 mmol/L
  CHLORIDE: 102.67 MEQ/L
  CHOLESTEROL: 74 mg/dL
  CREATINE PHOSPHOKINASE: 255.33 u/L
  CREATININE: 0.23 mg/dL
  GLUCOSE: 153 mg/dL
  LACTATE DEHYDROGENASE: 287.33 u/L
  LIPASE: 10 u/L
  PHOSPHORUS: 12.3 mg/dL
  POTASSIUM: 6.87 MEQ/L
  SODIUM: 146.47 MEQ/L
  TOTAL BILIRUBIN: 0.13 mg/dL
  TOTAL PROTEIN: 5.9 G/DL

Reference: ChEMBL document CHEMBL3885881, “DrugMatrix”
